The values below come from PMC12320245 (International Journal of Biological Sciences, 2025).

This assay concerns astrocytes. The experiment in a line: Lysosomal pH detection (DND-189 fluorescence). In kind it is cell-based.

In the case of `O=S(=O)(NCCNC/C=C/c1ccc(Br)cc1)c1cccc2cnccc12` [H-89], under “BafA1 + AMX + H-89”, the “lysosomal pH (DND-189 fluorescence), co-treatment with PKA inhibitor” value is given as “abolished the lysosomal acidification effect of AMX”.
`CO/C1=C\C(C)=C\[C@@H](C)[C@@H](O)[C@@H](C)C/C(C)=C/C=C/[C@H](OC)[C@@H]([C@@H](C)[C@@H](O)[C@H](C)[C@@]2(O)C[C@@H](O)[C@H](C)[C@@H](C(C)C)O2)OC1=O` [bafilomycin A1]: the “lysosomal pH (DND-189 fluorescence)” value (100 nM BafA1, 1-hour exposure) is given as “markedly alkalinized lysosomes”.
For the molecule `Nc1ncnc2c1ncn2[C@@H]1O[C@@H]2COP(=O)(O)O[C@H]2[C@H]1O` [cAMP, cyclic adenosine monophosphate], the “lysosomal pH (DND-189 fluorescence), reversal of BafA1 effect” value (300 μM cAMP with 100 nM BafA1) is recorded as “effectively reversed BafA1-induced alkalization”.
